These results are taken from patent publication US20250304576A1 (Cancer Research Technology Limited, priority 2022, published 2025).

The assay has as its target T1, CHUK (IKK alpha) (Homo sapiens, UniProt O15111).
T1 construct: purchased Life Technologies (assay performed by the vendor)
T1 sequence (O15111 1-745): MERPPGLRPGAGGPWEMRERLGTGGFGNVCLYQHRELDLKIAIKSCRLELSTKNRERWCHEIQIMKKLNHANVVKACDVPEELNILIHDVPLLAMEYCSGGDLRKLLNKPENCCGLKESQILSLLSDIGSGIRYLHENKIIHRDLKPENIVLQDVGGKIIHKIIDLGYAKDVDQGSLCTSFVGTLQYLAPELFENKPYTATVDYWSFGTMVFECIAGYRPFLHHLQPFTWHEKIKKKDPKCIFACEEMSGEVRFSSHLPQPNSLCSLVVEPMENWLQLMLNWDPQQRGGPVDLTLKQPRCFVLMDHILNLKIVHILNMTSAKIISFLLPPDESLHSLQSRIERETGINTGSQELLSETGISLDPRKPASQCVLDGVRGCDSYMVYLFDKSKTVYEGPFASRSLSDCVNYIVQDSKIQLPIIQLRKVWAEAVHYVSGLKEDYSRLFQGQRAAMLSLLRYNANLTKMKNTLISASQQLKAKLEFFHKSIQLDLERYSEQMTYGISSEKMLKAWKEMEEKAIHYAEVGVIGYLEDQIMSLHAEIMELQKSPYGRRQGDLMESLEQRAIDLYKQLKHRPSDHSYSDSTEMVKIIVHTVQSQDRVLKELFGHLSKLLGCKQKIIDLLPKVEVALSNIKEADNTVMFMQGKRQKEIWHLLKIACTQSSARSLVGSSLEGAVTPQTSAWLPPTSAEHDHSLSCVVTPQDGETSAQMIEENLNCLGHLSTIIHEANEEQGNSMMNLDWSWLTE
The assay can be described thus: Adapta IKKα assay (TR-FRET ADP formation, Life Technologies). It is filed as biochemical. To be noted: Adapta assay (second line of an example). On the procedure: IKKα and IKKβ inhibitory activity was determined using three different assays: a dissociation enhanced ligand fluorescent immunoassay (DELFIA) based on the protocol of HTScan™ IKKβ Kinase Assay (Cell Signaling Technology, USA); an Adapta IKKα assay (performed by Life Technologies); a Z′-LYTE™ IKKβ assay (performed by Life Technologies).
The reaction was performed in low-volume white 384-well plates (Corning model 4512).
The test compounds were screened in 1% DMSO (final) in the well. For 10 point titrations, 3-fold serial dilutions were conducted from the starting concentration of 50 mM.
The 2× CHUK (IKK alpha) kinase was prepared in 50 mM HEPES pH 7.5, 0.01% BRIJ-35, 10 mM MgCl2 and 1 mM EGTA. The final 10 μL kinase mixture consisted of 50-250 ng CHUK (IKK alpha) in 32.5 mM HEPES pH 7.5, 0.005% BRIJ-35, 5 mM MgCl2 and 0.5 mM EGTA. No substrate was required, as the assay measures the ability of a compound to inhibit the kinase's intrinsic ATPase activity.
5 μL of 2× Kinase mixture was incubated with 2.5 μL of ATP solution diluted to a 4×working concentration in water, in the presence of 100 nL of 100× test compound in 100% DMSO and 2.4 μL of 30 mM HEPES buffer.
After 30-second plate shake and 1-minute centrifuge at 1000×g, the resulting kinase reaction was allowed to incubate for 1 hour at room temperature before 5 μL of Detection Mix was added.
The Detection Mix, previously prepared in TR-FRET Dilution Buffer, consisted of EDTA (30 mM), Eu-anti-ADP antibody (6 nM) and an Alexa Fluor™ 647 labelled ADP tracer. The Detection Mix contained the EC60 concentration of tracer for 5-150 μM ATP.
After 30-second plate shake and 1-minute centrifuge at 1000×g, the Detection Mix was allowed to equilibrate at room temperature for 1 hour. Then the plate was read using a fluorescence plate reader configured for Adapta™ TR-FRET and the data analysed.
ADP formation was determined by calculating the emission ratio from the assay well. Therefore, the emission ratio was calculated by dividing the intensity of the tracer (acceptor) emission by the intensity of the Eu (donor) emission at 615 nm as shown in the equation below.
The IKKα and IKKb figures quoted in italicised form are from the Adapta assay described above.
Background: Time-resolved FRET reads energy transfer from a long-lived donor to a nearby acceptor.
Broadly, the IC50 is the concentration that gives 50% inhibition. A lower IC50 goes with inhibition by little substance. Compound `Nc1n[nH]c2ccc(-c3ccnc4[nH]c(CC5CCCCC5)cc34)cc12` [Example 221, 5-(2-(Cyclohexylmethyl)-1H-pyrrolo[2,3-b]pyridin-4-yl)-1H-indazol-3-amine] yielded an IC50 of 8 nM.

In turn, `Nc1n[nH]c2ccc(-c3ccnc4[nH]c(CCC5CCCCC5)cc34)cc12` [Example 222, 5-(2-(2-Cyclohexylethyl)-1H-pyrrolo[2,3-b]pyridin-4-yl)-1H-indazol-3-amine] registered an IC50 of 26 nM.

`Nc1n[nH]c2ccc(-c3ccnc4[nH]c(CO)cc34)cc12` [Example 224] yielded a half-maximal inhibitory concentration (IC50) of 1 nM.

Consider `CC(C)(C)OCc1cc2c(-c3ccc4[nH]nc(N)c4c3)ccnc2[nH]1` [Example 227, 5-(2-(tert-Butoxymethyl)-1H-pyrrolo[2,3-b]pyridin-4-yl)-1H-indazol-3-amine], for which half-maximal inhibition (IC50) was put at 2 nM.

Take `Nc1n[nH]c2ccc(-c3ccnc4[nH]c(C5CCOCC5)cc34)cc12` [Example 228, 5-(2-(tetrahydro-2H-pyran-4-yl)-1H-pyrrolo[2,3-b]pyridin-4-yl)-1H-indazol-3-amine]: the IC50 is 1 nM.

`Nc1n[nH]c2ccc(-c3ccnc4[nH]c(C5CCCCO5)cc34)cc12` (centres unmarked) [Example 229, 5-(2-(Tetrahydro-2H-pyran-2-yl)-1H-pyrrolo[2,3-b]pyridin-4-yl)-1H-indazol-3-amine] had an IC50 of 1 nM.

Compound `Nc1n[nH]c2ccc(-c3ccnc4[nH]c(CC5CCOCC5)cc34)cc12` [Example 230, 5-(2-((tetrahydro-2H-pyran-4-yl)methyl)-1H-pyrrolo[2,3-b]pyridin-4-yl)-1H-indazol-3-amine] came in with an IC50 of 1 nM.

The compound `Nc1n[nH]c2ccc(-c3ccnc4[nH]c(C(=O)N5CCCC5)cc34)cc12` [Example 234, (4-(3-Amino-1H-indazol-5-yl)-1H-pyrrolo[2,3-b]pyridin-2-yl)(pyrrolidin-1-yl)methanone] displayed an IC50 of 32 nM.

For `Nc1n[nH]c2ccc(-c3ccnc4[nH]c(C(=O)NC5CCCCC5)cc34)cc12` [Example 236, 4-(3-Amino-1H-indazol-5-yl)-N-cyclohexyl-1H-pyrrolo[2,3-b]pyridine-2-carboxamide], half-maximal inhibition (IC50) was put at 2 nM.

`CN1CCN(C(=O)c2cc3c(-c4ccc5[nH]nc(N)c5c4)ccnc3[nH]2)CC1` [Example 243, (4-(3-Amino-1H-indazol-5-yl)-1H-pyrrolo[2,3-b]pyridin-2-yl)(4-methylpiperazin-1-yl)methanone]: inhibition was half-maximal at 13 nM (IC50).

Regarding `CC(C)(C)NCc1cc2c(-c3ccc4[nH]nc(N)c4c3)ccnc2[nH]1` [Example 248, 5-(2-((tert-Butylamino)methyl)-1H-pyrrolo[2,3-b]pyridine-4-yl)-1H-indazol-3-amine], the IC50 was determined as 34 nM.

Compound `Nc1n[nH]c2ccc(-c3ccnc4[nH]c(C5CCCCN5)cc34)cc12` (centres unmarked) [Example 250, 5-(2-(Piperidin-2-yl)-1H-pyrrolo[2,3-b]pyridine-4-yl)-1H-indazol-3-amine] displayed an IC50 of 41 nM.

Turning to `Nc1n[nH]c2ccc(-c3ccnc4[nH]c(CNC5CCCCC5)cc34)cc12` [Example 251, 5-(2-((cyclohexylamino)methyl)-1H-pyrrolo[2,3-b]339yridine-4-yl)-1H-indazol-3-amine], half-maximal inhibition (IC50) was put at 6 nM.

Compound `CN(C)CCCNCc1cc2c(-c3ccc4[nH]nc(N)c4c3)ccnc2[nH]1` [Example 258, N^1-((4-(3-amino-1H-indazol-5-yl)-1H-pyrrolo[2,3-b]pyridin-2-yl)methyl)-N^3,N^3-dimethylpropane-1,3-diamine] gave an IC50 of 10 nM.

On to `CC(C)N(C)Cc1cc2c(-c3ccc4[nH]nc(N)c4c3)ccnc2[nH]1` [Example 259, 5-(2-((Isopropyl(methyl)amino)methyl)-1H-pyrrolo[2,3-b]pyridine-4-yl)-1H-indazol-3-amine], for which it took 32 nM to reach half-maximal inhibition (IC50).

In turn, `Nc1n[nH]c2ccc(-c3ccnc4[nH]c(CN5CCCCC5)cc34)cc12` [Example 260, 5-(2-(Piperidin-1-ylmethyl)-1H-pyrrolo[2,3-b]pyridine-4-yl)-1H-indazol-3-amine] yielded an IC50 of 27 nM.

For `Nc1n[nH]c2ccc(-c3ccnc4[nH]c(CN5CCC(F)(F)CC5)cc34)cc12` [Example 261, 5-(2-((4,4-Difluoropiperidin-1-yl)methyl)-1H-pyrrolo[2,3-b]pyridine-4-yl)-1H-indazol-3-amine], the IC50 was 11 nM.

The compound `Nc1n[nH]c2ccc(-c3ccnc4[nH]c(CN5CCOCC5)cc34)cc12` [Example 262, 5-(2-(Morpholinomethyl)-1H-pyrrolo[2,3-b]pyridine-4-yl)-1H-indazol-3-amine] returned a half-maximal inhibitory concentration (IC50) of 2 nM.

`CN1CCN(Cc2cc3c(-c4ccc5[nH]nc(N)c5c4)ccnc3[nH]2)CC1` [Example 263, 5-(2-((4-Methylpiperazin-1-yl)methyl)-1H-pyrrolo[2,3-b]pyridine-4-yl)-1H-indazol-3-amine] came in with an IC50 of 14 nM.

For the compound `Nc1n[nH]c2ccc(-c3ccnc4[nH]c(CN5CCCCCC5)cc34)cc12` [Example 265, 5-(2-(Azepan-1-ylmethyl)-1H-pyrrolo[2,3-b]pyridine-4-yl)-1H-indazol-3-amine], the IC50 worked out at 13 nM.

Regarding `CN1CCCN(Cc2cc3c(-c4ccc5[nH]nc(N)c5c4)ccnc3[nH]2)CC1` [Example 266, 5-(2-((4-Methyl-1,4-diazepan-1-yl)methyl)-1H-pyrrolo[2,3-b]pyridin-4-yl)-1H-indazol-3-amine], it took 11 nM to reach half-maximal inhibition (IC50).

For the compound `Nc1n[nH]c2ccc(-c3ccnc4[nH]c(CCN5CCCCC5)cc34)cc12` [Example 267, 5-(2-(2-(Piperidin-1-yl)ethyl)-1H-pyrrolo[2,3-b]pyridine-4-yl)-1H-indazol-3-amine], half-maximal inhibition (IC50) was put at 8 nM.

Consider `Nc1n[nH]c2ccc(-c3ccnc4[nH]c(CCN5CCOCC5)cc34)cc12` [Example 268, 5-(2-(2-Morpholinoethyl)-1H-pyrrolo[2,3-b]pyridin-4-yl)-1H-indazol-3-amine], for which the IC50 stood at 1 nM.

`Nc1n[nH]c2ccc(-c3ccnc4[nH]c(CCCN5CCCCC5)cc34)cc12` [Example 269, 5-(2-(3-(Piperidin-1-yl)propyl)-1H-pyrrolo[2,3-b]pyridin-4-yl)-1H-indazol-3-amine] gave an IC50 of 4 nM.

Compound `Nc1n[nH]c2ccc(-c3ccnc4[nH]c(CCCN5CCOCC5)cc34)cc12` [Example 271, 5-(2-(3-Morpholinopropyl)-1H-pyrrolo[2,3-b]pyridin-4-yl)-1H-indazlo-3-amine] had a 50% inhibitory concentration (IC50) of 1 nM.

As for `Nc1n[nH]c2ccc(-c3ccnc4[nH]c(CC5CCNCC5)cc34)cc12` [Example 272, 5-(2-(Piperidin-4-ylmethyl)-1H-pyrrolo[2,3-b]pyridin-4-yl)-1H-indazol-3-amine], inhibition was half-maximal at 1 nM (IC50).
